{
  "source": "paper PMC6978363",
  "about": "“Chaperone mediated detection of small molecule target binding in cells” (Nature Communications, 2020)",
  "assay_in_all_cases": "biochemical",
  "conditions_in_all_cases": "read-out: % Inhibition (at 10mM)",
  "key": {"p38_gamma": {"biological_target": "T1, p38_gamma (Homo sapiens, UniProt P53778)", "T1 construct": "gene MAPK12", "T1 sequence (P53778 whole entry)": "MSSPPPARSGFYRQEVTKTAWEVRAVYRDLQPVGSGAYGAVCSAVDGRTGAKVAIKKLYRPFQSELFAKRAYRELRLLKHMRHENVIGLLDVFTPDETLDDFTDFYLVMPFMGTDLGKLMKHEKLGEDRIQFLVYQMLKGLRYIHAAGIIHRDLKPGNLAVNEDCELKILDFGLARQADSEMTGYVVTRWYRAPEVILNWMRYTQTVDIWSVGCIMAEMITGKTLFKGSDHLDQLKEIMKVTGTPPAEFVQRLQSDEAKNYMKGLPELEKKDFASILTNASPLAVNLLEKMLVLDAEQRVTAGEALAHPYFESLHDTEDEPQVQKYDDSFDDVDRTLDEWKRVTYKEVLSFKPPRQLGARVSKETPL"}, "GRK2": {"biological_target": "GRK2 (Homo sapiens, UniProt P25098)"}, "ZAP-70": {"biological_target": "T2, ZAP-70 (Homo sapiens, UniProt P43403)", "T2 construct": "gene ZAP70"}, "Kit": {"biological_target": "Kit (Homo sapiens, UniProt P10721)"}, "MAPKAPK3": {"biological_target": "MAPKAPK3 (Homo sapiens, UniProt Q16644)", "sequence (Q16644 whole entry)": "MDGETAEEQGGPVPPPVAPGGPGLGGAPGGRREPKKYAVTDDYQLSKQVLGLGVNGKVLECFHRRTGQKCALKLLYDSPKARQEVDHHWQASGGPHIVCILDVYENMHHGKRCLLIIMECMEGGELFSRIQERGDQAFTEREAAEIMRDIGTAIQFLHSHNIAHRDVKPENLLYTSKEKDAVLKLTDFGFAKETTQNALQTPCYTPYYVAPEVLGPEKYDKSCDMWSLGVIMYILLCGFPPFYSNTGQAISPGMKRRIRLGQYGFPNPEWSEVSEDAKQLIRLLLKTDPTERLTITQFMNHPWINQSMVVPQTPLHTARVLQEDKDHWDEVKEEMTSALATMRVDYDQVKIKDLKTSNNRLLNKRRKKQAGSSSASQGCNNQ"}, "FGFR4": {"biological_target": "FGFR4 (Homo sapiens, UniProt P22455)"}, "CSK": {"biological_target": "CSK (Homo sapiens, UniProt P41240)"}, "DCAMKL1": {"biological_target": "T3, DCAMKL1 (Homo sapiens, UniProt O15075)", "T3 construct": "gene DCLK1", "T3 sequence (O15075 whole entry)": "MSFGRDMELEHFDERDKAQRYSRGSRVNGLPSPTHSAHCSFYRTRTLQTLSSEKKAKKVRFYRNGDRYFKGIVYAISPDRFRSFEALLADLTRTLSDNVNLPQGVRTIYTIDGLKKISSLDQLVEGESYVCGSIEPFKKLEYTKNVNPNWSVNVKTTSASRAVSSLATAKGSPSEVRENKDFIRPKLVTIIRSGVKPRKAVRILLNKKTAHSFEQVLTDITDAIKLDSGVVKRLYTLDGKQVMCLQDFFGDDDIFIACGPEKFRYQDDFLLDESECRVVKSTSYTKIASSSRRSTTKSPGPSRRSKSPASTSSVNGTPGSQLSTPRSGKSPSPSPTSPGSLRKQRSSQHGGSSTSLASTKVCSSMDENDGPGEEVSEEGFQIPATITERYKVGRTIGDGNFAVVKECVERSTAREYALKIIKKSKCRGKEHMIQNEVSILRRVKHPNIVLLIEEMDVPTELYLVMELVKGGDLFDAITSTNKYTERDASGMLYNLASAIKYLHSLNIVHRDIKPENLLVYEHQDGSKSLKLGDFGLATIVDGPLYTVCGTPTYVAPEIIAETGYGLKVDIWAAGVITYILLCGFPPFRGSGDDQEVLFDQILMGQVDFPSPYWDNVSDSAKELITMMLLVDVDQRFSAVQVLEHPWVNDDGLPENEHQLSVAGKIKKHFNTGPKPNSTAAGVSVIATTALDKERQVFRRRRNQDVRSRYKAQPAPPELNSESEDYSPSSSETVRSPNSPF"}, "EphA4": {"biological_target": "EphA4 (Homo sapiens, UniProt P54764)", "sequence (P54764 whole entry)": "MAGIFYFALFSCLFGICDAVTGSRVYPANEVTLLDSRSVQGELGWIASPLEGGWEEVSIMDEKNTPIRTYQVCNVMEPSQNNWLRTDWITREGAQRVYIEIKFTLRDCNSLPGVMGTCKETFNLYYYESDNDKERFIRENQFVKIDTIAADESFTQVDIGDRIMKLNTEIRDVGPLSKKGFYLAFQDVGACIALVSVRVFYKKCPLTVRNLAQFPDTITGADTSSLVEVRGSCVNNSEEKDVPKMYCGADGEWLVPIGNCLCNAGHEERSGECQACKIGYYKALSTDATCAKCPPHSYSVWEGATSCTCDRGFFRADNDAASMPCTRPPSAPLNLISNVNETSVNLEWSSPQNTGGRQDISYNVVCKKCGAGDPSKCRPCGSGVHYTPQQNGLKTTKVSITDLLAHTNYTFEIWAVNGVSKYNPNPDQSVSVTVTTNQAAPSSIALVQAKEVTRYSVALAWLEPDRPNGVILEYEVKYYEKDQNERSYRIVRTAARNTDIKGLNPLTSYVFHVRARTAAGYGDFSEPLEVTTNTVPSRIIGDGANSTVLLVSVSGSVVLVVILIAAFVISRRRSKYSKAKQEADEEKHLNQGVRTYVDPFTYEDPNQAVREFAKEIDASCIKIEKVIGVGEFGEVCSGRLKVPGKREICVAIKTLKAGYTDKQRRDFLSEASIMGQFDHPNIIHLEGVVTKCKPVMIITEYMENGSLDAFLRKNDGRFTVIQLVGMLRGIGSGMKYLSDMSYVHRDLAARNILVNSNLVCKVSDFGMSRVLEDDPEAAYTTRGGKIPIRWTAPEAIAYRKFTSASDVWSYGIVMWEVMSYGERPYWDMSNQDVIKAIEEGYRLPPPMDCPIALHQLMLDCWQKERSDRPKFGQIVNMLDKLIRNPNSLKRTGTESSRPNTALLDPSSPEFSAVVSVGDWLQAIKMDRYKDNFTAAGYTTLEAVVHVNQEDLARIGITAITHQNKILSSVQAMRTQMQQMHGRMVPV"}, "ALK": {"biological_target": "ALK (Homo sapiens, UniProt Q9UM73)"}, "TNK1": {"biological_target": "TNK1 (Homo sapiens, UniProt Q13470)"}, "CK1_delta": {"biological_target": "T4, CK1_delta (Homo sapiens, UniProt P48730)", "T4 construct": "gene CSNK1D", "T4 sequence (P48730 whole entry)": "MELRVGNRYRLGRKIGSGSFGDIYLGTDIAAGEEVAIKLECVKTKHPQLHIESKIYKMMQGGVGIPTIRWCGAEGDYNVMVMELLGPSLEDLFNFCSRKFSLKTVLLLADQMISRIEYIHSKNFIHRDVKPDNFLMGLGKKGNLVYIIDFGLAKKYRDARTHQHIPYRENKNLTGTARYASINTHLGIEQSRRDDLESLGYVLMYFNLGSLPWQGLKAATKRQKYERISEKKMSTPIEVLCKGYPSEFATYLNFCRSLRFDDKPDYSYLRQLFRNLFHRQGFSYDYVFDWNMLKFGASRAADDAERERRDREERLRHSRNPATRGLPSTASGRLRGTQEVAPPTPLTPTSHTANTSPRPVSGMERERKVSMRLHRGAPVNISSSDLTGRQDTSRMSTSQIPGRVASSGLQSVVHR"}, "PAK2": {"biological_target": "PAK2 (Homo sapiens, UniProt Q13177)"}, "Hyl": {"biological_target": "T5, Hyl (Homo sapiens, UniProt P42679)", "T5 construct": "gene MATK"}, "GRK3": {"biological_target": "GRK3 (Homo sapiens, UniProt P35626)"}, "PCTK2": {"biological_target": "T6, PCTK2 (Homo sapiens, UniProt Q00537)", "T6 construct": "gene CDK17"}, "CSF1R": {"biological_target": "CSF1R (Homo sapiens, UniProt P07333)"}, "KHS1": {"biological_target": "T7, KHS1 (Homo sapiens, UniProt Q9Y4K4)", "T7 construct": "gene MAP4K5"}, "ERK1": {"biological_target": "T8, ERK1 (Homo sapiens, UniProt P27361)", "T8 construct": "gene MAPK3"}, "PAK1": {"biological_target": "PAK1 (Homo sapiens, UniProt Q13153)"}, "TrkC": {"biological_target": "T9, TrkC (Homo sapiens, UniProt Q16288)", "T9 construct": "gene NTRK3"}, "CamKII_delta": {"biological_target": "T10, CamKII_delta (Homo sapiens, UniProt Q13557)", "T10 construct": "gene CAMK2D"}, "MSK2": {"biological_target": "T11, MSK2 (Homo sapiens, UniProt O75676)", "T11 construct": "gene RPS6KA4"}, "Yes": {"biological_target": "T12, Yes (Homo sapiens, UniProt P07947)", "T12 construct": "gene YES1", "T12 sequence (P07947 whole entry)": "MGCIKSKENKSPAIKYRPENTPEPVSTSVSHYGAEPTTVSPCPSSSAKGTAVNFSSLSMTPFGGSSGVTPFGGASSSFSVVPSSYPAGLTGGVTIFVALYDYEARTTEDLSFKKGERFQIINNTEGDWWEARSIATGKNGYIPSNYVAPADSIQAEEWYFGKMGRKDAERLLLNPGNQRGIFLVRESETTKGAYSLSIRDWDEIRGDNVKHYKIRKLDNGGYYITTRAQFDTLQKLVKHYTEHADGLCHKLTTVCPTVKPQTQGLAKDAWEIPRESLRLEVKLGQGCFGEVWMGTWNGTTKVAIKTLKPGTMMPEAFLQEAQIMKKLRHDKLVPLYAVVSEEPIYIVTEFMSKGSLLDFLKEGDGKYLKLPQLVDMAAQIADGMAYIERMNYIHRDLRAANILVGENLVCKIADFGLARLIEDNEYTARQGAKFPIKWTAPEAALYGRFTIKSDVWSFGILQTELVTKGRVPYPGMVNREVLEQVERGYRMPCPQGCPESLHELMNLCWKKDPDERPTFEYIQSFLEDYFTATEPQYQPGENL"}, "GCK": {"biological_target": "T13, GCK (Homo sapiens, UniProt Q12851)", "T13 construct": "gene MAP4K2"}, "GSK3_alpha": {"biological_target": "T14, GSK3_alpha (Homo sapiens, UniProt P49840)", "T14 construct": "gene GSK3A"}, "p70S6K": {"biological_target": "T15, p70S6K (Homo sapiens, UniProt P23443)", "T15 construct": "gene RPS6KB1"}, "PKC_epsilon": {"biological_target": "T16, PKC_epsilon (Homo sapiens, UniProt Q02156)", "T16 construct": "gene PRKCE"}, "Srm": {"biological_target": "T17, Srm (Homo sapiens, UniProt Q9H3Y6)", "T17 construct": "gene SRMS", "T17 sequence (Q9H3Y6 whole entry)": "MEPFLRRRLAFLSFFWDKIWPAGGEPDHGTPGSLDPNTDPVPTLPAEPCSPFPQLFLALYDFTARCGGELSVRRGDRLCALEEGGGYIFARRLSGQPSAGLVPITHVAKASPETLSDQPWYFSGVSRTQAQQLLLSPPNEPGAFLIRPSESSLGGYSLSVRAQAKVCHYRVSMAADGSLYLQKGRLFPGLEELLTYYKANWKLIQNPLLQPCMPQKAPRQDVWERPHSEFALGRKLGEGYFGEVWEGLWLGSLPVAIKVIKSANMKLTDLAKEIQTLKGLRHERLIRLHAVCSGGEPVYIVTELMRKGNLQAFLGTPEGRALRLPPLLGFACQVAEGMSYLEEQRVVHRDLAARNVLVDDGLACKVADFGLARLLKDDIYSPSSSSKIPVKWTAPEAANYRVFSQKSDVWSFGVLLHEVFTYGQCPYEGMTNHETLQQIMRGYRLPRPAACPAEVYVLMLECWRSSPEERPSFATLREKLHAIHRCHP"}, "HIPK1": {"biological_target": "HIPK1 (Homo sapiens, UniProt Q86Z02)"}, "RSK3": {"biological_target": "T18, RSK3 (Homo sapiens, UniProt Q15349)", "T18 construct": "gene RPS6KA2"}, "DYRK1A": {"biological_target": "DYRK1A (Homo sapiens, UniProt Q13627)"}, "eEF-2K": {"biological_target": "T19, eEF-2K (Homo sapiens, UniProt O00418)", "T19 construct": "gene EEF2K"}, "EphA5": {"biological_target": "EphA5 (Homo sapiens, UniProt P54756)", "sequence (P54756 whole entry)": "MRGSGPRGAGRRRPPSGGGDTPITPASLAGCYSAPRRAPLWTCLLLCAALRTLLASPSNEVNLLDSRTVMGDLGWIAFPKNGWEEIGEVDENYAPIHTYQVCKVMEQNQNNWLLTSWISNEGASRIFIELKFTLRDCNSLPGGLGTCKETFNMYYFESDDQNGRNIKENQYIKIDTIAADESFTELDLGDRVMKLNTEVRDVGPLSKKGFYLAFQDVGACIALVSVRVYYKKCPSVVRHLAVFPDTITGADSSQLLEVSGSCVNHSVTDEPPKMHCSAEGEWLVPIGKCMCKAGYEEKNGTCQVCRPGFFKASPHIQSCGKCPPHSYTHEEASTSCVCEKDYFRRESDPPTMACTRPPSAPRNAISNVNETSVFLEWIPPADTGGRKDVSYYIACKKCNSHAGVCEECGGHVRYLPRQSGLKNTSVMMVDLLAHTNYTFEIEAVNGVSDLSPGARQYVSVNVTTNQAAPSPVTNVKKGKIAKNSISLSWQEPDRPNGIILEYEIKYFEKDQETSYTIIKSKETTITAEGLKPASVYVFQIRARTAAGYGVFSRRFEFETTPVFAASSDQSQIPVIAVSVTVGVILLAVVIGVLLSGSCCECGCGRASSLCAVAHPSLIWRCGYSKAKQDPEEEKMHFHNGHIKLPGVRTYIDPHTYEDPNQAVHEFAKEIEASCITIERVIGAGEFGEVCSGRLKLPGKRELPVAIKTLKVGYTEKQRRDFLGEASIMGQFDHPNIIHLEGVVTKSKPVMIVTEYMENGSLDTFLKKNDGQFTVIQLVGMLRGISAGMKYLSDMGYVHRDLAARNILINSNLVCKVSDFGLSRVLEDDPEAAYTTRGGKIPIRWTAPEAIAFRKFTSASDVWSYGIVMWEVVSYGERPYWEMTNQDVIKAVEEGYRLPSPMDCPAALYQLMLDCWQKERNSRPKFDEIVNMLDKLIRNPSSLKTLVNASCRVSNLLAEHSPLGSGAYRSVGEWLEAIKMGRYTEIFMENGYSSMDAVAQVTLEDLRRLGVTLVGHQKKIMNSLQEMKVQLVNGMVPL"}, "CDK5/p25": {"biological_target": "T20, CDK5/p25 (Homo sapiens, UniProt Q00535)", "T20 construct": "p25"}, "MKNK1": {"biological_target": "MKNK1 (Homo sapiens, UniProt Q9BUB5)"}, "IRR": {"biological_target": "T21, IRR (Homo sapiens, UniProt P14616)", "T21 construct": "gene INSRR"}},
  "data": [
    {"smiles": "CC(C)(O)CC(=O)NCCn1ccc2ncnc(Nc3ccc(Oc4cccc(C(F)(F)F)c4)c(Cl)c3)c21", "note": "[TAK-285]", "values": [
      {"measurement": "inhibition", "setting": "p38_gamma", "result": 12.5, "unit": "%"},
      {"measurement": "inhibition", "setting": "GRK2", "result": 0, "unit": "%"},
      {"measurement": "inhibition", "setting": "ZAP-70", "result": 2, "unit": "%"},
      {"measurement": "inhibition", "setting": "Kit", "result": -1.5, "unit": "%"},
      {"measurement": "inhibition", "setting": "MAPKAPK3", "result": 14.5, "unit": "%"},
      {"measurement": "inhibition", "setting": "FGFR4", "result": 6, "unit": "%"},
      {"measurement": "inhibition", "setting": "CSK", "result": 56.5, "unit": "%"},
      {"measurement": "inhibition", "setting": "DCAMKL1", "result": -2.5, "unit": "%"},
      {"measurement": "inhibition", "setting": "EphA4", "result": 9, "unit": "%"},
      {"measurement": "inhibition", "setting": "ALK", "result": 8.5, "unit": "%"},
      {"measurement": "inhibition", "setting": "TNK1", "result": 12, "unit": "%"},
      {"measurement": "inhibition", "setting": "CK1_delta", "result": -1.5, "unit": "%"},
      {"measurement": "inhibition", "setting": "PAK2", "result": 10.5, "unit": "%"},
      {"measurement": "inhibition", "setting": "Hyl", "result": -2.5, "unit": "%"},
      {"measurement": "inhibition", "setting": "GRK3", "result": -5.5, "unit": "%"},
      {"measurement": "inhibition", "setting": "PCTK2", "result": 0.5, "unit": "%"},
      {"measurement": "inhibition", "setting": "CSF1R", "result": 10.5, "unit": "%"},
      {"measurement": "inhibition", "setting": "KHS1", "result": 40.5, "unit": "%"},
      {"measurement": "inhibition", "setting": "ERK1", "result": 3, "unit": "%"},
      {"measurement": "inhibition", "setting": "PAK1", "result": 16, "unit": "%"},
      {"measurement": "inhibition", "setting": "TrkC", "result": 6, "unit": "%"},
      {"measurement": "inhibition", "setting": "CamKII_delta", "result": 6, "unit": "%"},
      {"measurement": "inhibition", "setting": "MSK2", "result": 9.5, "unit": "%"},
      {"measurement": "inhibition", "setting": "Yes", "result": 83, "unit": "%"},
      {"measurement": "inhibition", "setting": "GCK", "result": 6.5, "unit": "%"},
      {"measurement": "inhibition", "setting": "GSK3_alpha", "result": 10, "unit": "%"},
      {"measurement": "inhibition", "setting": "p70S6K", "result": 7.5, "unit": "%"},
      {"measurement": "inhibition", "setting": "PKC_epsilon", "result": 16, "unit": "%"},
      {"measurement": "inhibition", "setting": "Srm", "result": 13.5, "unit": "%"},
      {"measurement": "inhibition", "setting": "HIPK1", "result": 4.5, "unit": "%"},
      {"measurement": "inhibition", "setting": "RSK3", "result": 2.5, "unit": "%"},
      {"measurement": "inhibition", "setting": "DYRK1A", "result": 9.5, "unit": "%"},
      {"measurement": "inhibition", "setting": "eEF-2K", "result": 7, "unit": "%"},
      {"measurement": "inhibition", "setting": "EphA5", "result": 2, "unit": "%"},
      {"measurement": "inhibition", "setting": "CDK5/p25", "result": 8, "unit": "%"},
      {"measurement": "inhibition", "setting": "MKNK1", "result": 6, "unit": "%"},
      {"measurement": "inhibition", "setting": "IRR", "result": 6.5, "unit": "%"}
    ]}
  ]
}
